Target: rat PGT (Rattus norvegicus (Rat), UniProt Q00910)
Assay: [3H]PGE2 uptake inhibition in MDCK cells stably transfected with rat PGT (percent inhibition and IC50)
Assay type: cell-based
Details: for Inh (% of Ctl) 0.5 μM: 0.5 μM compound; for Inh (% of Ctl) 0.5 μM / Inh (% of Ctl) 5 μM / Inh (% of Ctl) 1 μM / Inh (% of Ctl) 10 μM: inhibition of [3H]PGE2 uptake; for Inh (% of Ctl) 5 μM: 5 μM compound; for Inh (% of Ctl) 1 μM: 1 μM compound; for Inh (% of Ctl) 10 μM: 10 μM compound; for IC50: [3H]PGE2 uptake, MDCK cells stably transfected with rat PGT
Description: MDCK cells stably transfected with rat PGT (Endo et al., 2002) were seeded at 15-20% confluence on 24-well plates. The day on which the cells were seeded was considered day 1. PGE2 uptake experiments were conducted on day 4. All of the PGE2 uptake experiments were conducted at room temperature. On day 4, cells were washed twice with Waymouth buffer (135 mM NaCl, 13 mM H-Hepes, 13 mM Na-Hepes, 2.5 mM CaCl2, 1.2 mM MgCl2, 0.8 mM MgSO4, 5 mM KCl, and 28 mM D-glucose). Then 200 μL of Waymouth buffer containing [^3H]PGE2 (purchased from Perkin Elmer) was added to each well. At the designed time, the uptake of [^3H]PGE2 was stopped by aspiration of uptake buffer; this was followed by immediate washing twice with 500 μL of chilled Waymouth buffer. Cells were then lysed with 100 μL lysis buffer containing 0.25% SDS and 0.05 N NaOH. 1.5 mL of scintillation solution was added to each well, and intracellular [^3H]PGE2 was counted by MicroBeta Counter.
For preliminary testing of the compounds, 20 μL of Waymouth buffer containing the compound was added to each well; this was immediately followed by the addition of 180 μL of Waymouth buffer containing [^3H]PGE2. In each well, the total volume of uptake medium was 200 μL. Organic compounds were first dissolved in EtOH and then diluted in Waymouth buffer. The percent inhibition of [^3H]PGE2 uptake by compounds was calculated as [(uptakevehicle−uptakeinhibitor)÷(uptakevehicle)]×100.
IC50 was calculated by fitting an equation of y=m1−m1*(m0/(m2+m0)).

## COc1ccc(Nc2nc(NCCOCCOCCNC(=O)c3ccccc3)nc(Nc3ccccc3)n2)cc1 [compound 1]
  Inh (% of Ctl) 0.5 μM: 9.6 % of Ctl
  Inh (% of Ctl) 5 μM: 8.5 % of Ctl

## O=C(NCCOCCOCCNc1nc(Nc2ccccc2)nc(Nc2ccc(OCc3ccccc3)cc2)n1)c1ccccc1 [compound 2]
  Inh (% of Ctl) 0.5 μM: 1.6 % of Ctl
  Inh (% of Ctl) 5 μM: 6.5 % of Ctl

## O=C(NCCOCCOCCNc1nc(Cl)nc(Nc2ccc(OCc3ccccc3)cc2)n1)c1ccccc1 [compound 3]
  Inh (% of Ctl) 0.5 μM: 0.4 % of Ctl
  Inh (% of Ctl) 5 μM: 1.7 % of Ctl

## O=C(NCCOCCOCCNc1nc(Nc2ccccc2)nc(Nc2ccc(O)cc2)n1)c1ccccc1 [compound 4]
  Inh (% of Ctl) 0.5 μM: 7.0 % of Ctl
  Inh (% of Ctl) 1 μM: 32.4 % of Ctl
  Inh (% of Ctl) 5 μM: 67.6 % of Ctl
  Inh (% of Ctl) 10 μM: 81.5 % of Ctl
  IC50: 4.85 µM

## CN(C)c1nc(NCCOCCOCCNC(=O)c2ccccc2)nc(Nc2ccc(OCc3ccccc3)cc2)n1 [compound 5]
  Inh (% of Ctl) 0.5 μM: 6.6 % of Ctl
  Inh (% of Ctl) 5 μM: 9.6 % of Ctl

## O=C(NCCOCCOCCNc1nc(NCCO)nc(Nc2ccc(OCc3ccccc3)cc2)n1)c1ccccc1 [compound 6]
  Inh (% of Ctl) 0.5 μM: 3.6 % of Ctl
  Inh (% of Ctl) 5 μM: 11.7 % of Ctl

## COCCOCCOCCNc1nc(NCCOCCOCCNC(=O)c2ccccc2)nc(Nc2ccc(OCc3ccccc3)cc2)n1 [compound 7]
  Inh (% of Ctl) 0.5 μM: 4.8 % of Ctl
  Inh (% of Ctl) 5 μM: 22.5 % of Ctl

## O=C(O)C(F)(F)F.[N-]=[N+]=NCCOCCOCCNC(=O)c1ccc(Nc2nc(NCCOCCOCCNC(=O)c3ccccc3)nc(Nc3ccc(O)cc3)n2)cc1 [compound 8]
  Inh (% of Ctl) 0.5 μM: 52.3 % of Ctl
  IC50: 0.224 µM

## CN(C)c1nc(NCCOCCOCCNC(=O)c2ccccc2)nc(Nc2ccc(O)cc2)n1 [compound 9]
  Inh (% of Ctl) 0.5 μM: 1.3 % of Ctl
  Inh (% of Ctl) 5 μM: 18.8 % of Ctl

## O=C(NCCOCCOCCNc1nc(NCCO)nc(Nc2ccc(O)cc2)n1)c1ccccc1 [compound 10]
  Inh (% of Ctl) 0.5 μM: 1.4 % of Ctl
  Inh (% of Ctl) 5 μM: 15.0 % of Ctl

## COCCOCCOCCNc1nc(NCCOCCOCCNC(=O)c2ccccc2)nc(Nc2ccc(O)cc2)n1 [compound 11]
  Inh (% of Ctl) 0.5 μM: 11.4 % of Ctl
  Inh (% of Ctl) 5 μM: 29.9 % of Ctl

## O=C(NCCOCCOCCNc1nc(O)nc(Nc2ccc(O)cc2)n1)c1ccccc1 [compound 12]
  Inh (% of Ctl) 0.5 μM: 2.8 % of Ctl
  Inh (% of Ctl) 5 μM: 4.7 % of Ctl

## O=C(O)c1ccc(Nc2nc(NCCOCCOCCNC(=O)c3ccccc3)nc(Nc3ccc(O)cc3)n2)cc1 [compound 13]
  Inh (% of Ctl) 0.5 μM: 19.2 % of Ctl
  Inh (% of Ctl) 5 μM: 19.3 % of Ctl

## CNC(=O)c1ccc(Nc2nc(NCCOCCOCCNC(=O)c3ccccc3)nc(Nc3ccc(O)cc3)n2)cc1 [compound 14]
  Inh (% of Ctl) 0.5 μM: 10.6 % of Ctl
  Inh (% of Ctl) 5 μM: 35.9 % of Ctl

## CN(C)C(=O)c1ccc(Nc2nc(NCCOCCOCCNC(=O)c3ccccc3)nc(Nc3ccc(O)cc3)n2)cc1 [compound 15]
  Inh (% of Ctl) 0.5 μM: 15.0 % of Ctl
  Inh (% of Ctl) 5 μM: 16.6 % of Ctl

## CC(C)(C)NC(=O)c1ccc(Nc2nc(NCCOCCOCCNC(=O)c3ccccc3)nc(Nc3ccc(O)cc3)n2)cc1 [compound 16]
  Inh (% of Ctl) 0.5 μM: 11.8 % of Ctl
  Inh (% of Ctl) 5 μM: 44.8 % of Ctl
  IC50: 9.77 µM

## COC(=O)c1ccc(Nc2nc(NCCOCCOCCNC(=O)c3ccccc3)nc(Nc3ccc(O)cc3)n2)cc1 [compound 17]
  Inh (% of Ctl) 0.5 μM: 22.0 % of Ctl
  Inh (% of Ctl) 5 μM: 55.6 % of Ctl
  IC50: 6.57 µM

## O=C(NCCOCCO)c1ccc(Nc2nc(NCCOCCOCCNC(=O)c3ccccc3)nc(Nc3ccc(O)cc3)n2)cc1 [compound 18]
  Inh (% of Ctl) 0.5 μM: 21.1 % of Ctl
  Inh (% of Ctl) 5 μM: 48.9 % of Ctl

## COCCOCCOCCNC(=O)c1ccc(Nc2nc(NCCOCCOCCNC(=O)c3ccccc3)nc(Nc3ccc(O)cc3)n2)cc1 [compound 19]
  Inh (% of Ctl) 0.5 μM: 41.3 % of Ctl
  Inh (% of Ctl) 5 μM: 75.0 % of Ctl

## NC(=O)c1ccc(Nc2nc(NCCOCCOCCNC(=O)c3ccccc3)nc(Nc3ccc(O)cc3)n2)cc1 [compound 20]
  Inh (% of Ctl) 0.5 μM: 9.6 % of Ctl
  Inh (% of Ctl) 5 μM: 14.4 % of Ctl

## O=C(NCCO)c1ccc(Nc2nc(NCCOCCOCCNC(=O)c3ccccc3)nc(Nc3ccc(O)cc3)n2)cc1 [compound 21]
  Inh (% of Ctl) 0.5 μM: 15.7 % of Ctl
  Inh (% of Ctl) 5 μM: 68.2 % of Ctl

## O=C(NCCOCCOCCNc1nc(Nc2ccc(O)cc2)nc(Nc2ccc(C(=O)NCc3ccccc3)cc2)n1)c1ccccc1 [compound 22]
  Inh (% of Ctl) 0.5 μM: 62.4 % of Ctl
  Inh (% of Ctl) 5 μM: 88.1 % of Ctl
  Inh (% of Ctl) 10 μM: 95.5 % of Ctl
  IC50: 0.0427 µM

## COc1ccc(Nc2nc(NCCOCCOCCNC(=O)c3ccccc3)nc(Nc3ccc(O)cc3)n2)cc1 [compound 23]
  Inh (% of Ctl) 0.5 μM: 14.4 % of Ctl
  Inh (% of Ctl) 5 μM: 38.4 % of Ctl

## O=C(NCCOCCOCCNc1nc(Nc2ccc(O)cc2)nc(Nc2ccc(N3CCOCC3)cc2)n1)c1ccccc1 [compound 24]
  Inh (% of Ctl) 0.5 μM: 1.7 % of Ctl
  Inh (% of Ctl) 5 μM: 9.2 % of Ctl

## Nc1ccc(Nc2nc(NCCOCCOCCNC(=O)c3ccccc3)nc(Nc3ccc(O)cc3)n2)cc1 [compound 25]
  Inh (% of Ctl) 0.5 μM: 12.9 % of Ctl
  Inh (% of Ctl) 5 μM: 27.7 % of Ctl

## O=C(NCCOCCOCCNc1nc(Nc2ccc(O)cc2)nc(Nc2ccc(CO)cc2)n1)c1ccccc1 [compound 26]
  Inh (% of Ctl) 0.5 μM: 2.6 % of Ctl
  Inh (% of Ctl) 5 μM: 35.2 % of Ctl

## O=C(NCCOCCOCCNc1nc(Nc2ccc(O)cc2)nc(NC2CCCCC2)n1)c1ccccc1 [compound 27]
  Inh (% of Ctl) 0.5 μM: 28.2 % of Ctl
  Inh (% of Ctl) 5 μM: 53.8 % of Ctl

## O=C(NCCOCCOCCNc1nc(Nc2ccc(O)cc2)nc(Nc2ccc(O)cc2)n1)c1ccccc1 [compound 28]
  Inh (% of Ctl) 0.5 μM: 2.4 % of Ctl
  Inh (% of Ctl) 5 μM: 56.5 % of Ctl

## O=C(NCCOCCOCCNc1nc(Nc2ccccc2)nc(Nc2ccc(O)cc2)n1)c1ccncc1 [compound 29]
  Inh (% of Ctl) 1 μM: 15.9 % of Ctl
  Inh (% of Ctl) 10 μM: 49.6 % of Ctl

## O=C(NCCOCCOCCNc1nc(Nc2ccccc2)nc(Nc2ccc(O)cc2)n1)c1ccc(F)cc1 [compound 30]
  Inh (% of Ctl) 1 μM: 26.1 % of Ctl
  Inh (% of Ctl) 10 μM: 78.25 % of Ctl

## O=C(NCCOCCOCCNc1nc(Nc2ccccc2)nc(Nc2ccc(O)cc2)n1)c1ccc(Br)cc1 [compound 31]
  Inh (% of Ctl) 1 μM: 12.2 % of Ctl
  Inh (% of Ctl) 10 μM: 69.2 % of Ctl

## COc1ccc(C(=O)NCCOCCOCCNc2nc(Nc3ccccc3)nc(Nc3ccc(O)cc3)n2)cc1 [compound 32]
  Inh (% of Ctl) 1 μM: 29.0 % of Ctl
  Inh (% of Ctl) 10 μM: 71.0 % of Ctl

## O=C(NCCOCCOCCNc1nc(Nc2ccccc2)nc(Nc2ccc(O)cc2)n1)c1cccnc1 [compound 33]
  Inh (% of Ctl) 1 μM: 13.2 % of Ctl
  Inh (% of Ctl) 10 μM: 54.6 % of Ctl

## O=C(NCCOCCOCCNc1nc(Nc2ccccc2)nc(Nc2ccc(O)cc2)n1)c1cccc(F)c1 [compound 34]
  Inh (% of Ctl) 1 μM: 25.8 % of Ctl
  Inh (% of Ctl) 10 μM: 81 % of Ctl

## O=C(NCCOCCOCCNc1nc(Nc2ccccc2)nc(Nc2ccc(O)cc2)n1)c1cc(F)cc(F)c1 [compound 35]
  Inh (% of Ctl) 1 μM: 20.4 % of Ctl
  Inh (% of Ctl) 10 μM: 75.6 % of Ctl

## O=C(NCCOCCOCCNc1nc(Nc2ccccc2)nc(Nc2ccc(O)cc2)n1)c1cccc(Br)c1 [compound 36]
  Inh (% of Ctl) 1 μM: 30.3 % of Ctl
  Inh (% of Ctl) 10 μM: 81.1 % of Ctl

## COc1cccc(C(=O)NCCOCCOCCNc2nc(Nc3ccccc3)nc(Nc3ccc(O)cc3)n2)c1 [compound 37]
  Inh (% of Ctl) 1 μM: 32.4 % of Ctl
  Inh (% of Ctl) 10 μM: 79.0 % of Ctl

## O=S(=O)(NCCOCCOCCNc1nc(Nc2ccccc2)nc(Nc2ccc(O)cc2)n1)c1ccccc1 [compound 38]
  Inh (% of Ctl) 1 μM: 22.8 % of Ctl
  Inh (% of Ctl) 10 μM: 63.0 % of Ctl
